Source: patent US20230255970A1, “COMPOSITIONS AND METHODS FOR TREATING PROLIFERATIVE DISEASES” (The Broad Institute, Inc., priority 2020, published 2023)
Entries after “also recorded” stand apart in the source; their conditions may differ.

Experiments:
[1] = tested on: KP230, TC32, STS-109, HT-1080, HCT-116 cells; experiment: Trypan blue staining toxicity in the proliferation assay cell lines; format: cell-based; settings: all tested cell lines
Procedure: (§1) NB4A treatment: Cells were treated with 10 μM of each inhibitor or an equivalent volume of DMSO every 24 hours for 3-8 days, and counted with a hemocytometer with trypan blue exclusion daily (KP230, HT-1080, TC32, HCT-116), or every 2 days (STS-109).

[2] = tested on: HCT-116 colon cancer cells; experiment: Proliferation assay, HCT-116 cells; format: cell-based; settings: 10 μM daily for 72 hours
Text: (§2) YAP1 cell culture and treatments: Eisinger lab: Murine KP230 cells, a Yap1-dependent cancer cell line, were derived from a tumor from the KP mouse model (Kras^G12/D; Trp53^f/fl), as described in Eisinger-Mathason, T. S. K. et al., Proc. Natl. Acad. Sci. U.S.A 112 (2015): E3402-11, which is hereby incorporated by reference in its entirety. STS-109 UPS cells were derived from a human UPS tumor and validated by Rebecca Gladdy, MD (Sinai Health System, Toronto, Ontario, Canada). TC32 cells were a gift from Patrick Grohar, MD, PhD (Children's Hospital of Philadelphia). HT-1080, HCT-116, and HEK293T cells were purchased from ATCC. KP230, HT-1080, and HEK-293T cells were grown in DMEM with 10% FBS, 1% L-glutamine, and 1% penicillin/streptomycin (P/S). STS-109 cells were cultured in DMEM with 20% FBS, 1% L-glutamine, and 1% P/S. TC32 cells were grown in RPMI with 10% FBS, 1% L-glutamine, and 1% P/S. HCT-116 cells were cultured in McCoy's 5A medium with 10% FBS and 1% P/S. All cells were confirmed to be negative for mycoplasma contamination and were maintained in an incubator at 37C with 5% CO2. […]
as §1

Yap1 = Yap1 protein levels in KP230 cells (western blot, immunofluorescence); format: cell-based, mouse; settings: 72 hours
Text: as §2
YAP1-related Western blotting: The cells were lysed in RIPA buffer (Pierce) supplemented with Halt Protease inhibitor cocktail and Halt Phosphatase inhibitor cocktail. […] The protein concentration of each sample was quantified using the Pierce BCA protein assay (Thermo Fisher). […]

mouse sarcoma cells = experiment: qRT-PCR of Yap1/NF-κB target genes in mouse sarcoma cells; format: cell-based; settings: normalized to Hprt, Sdha, timecourse
Procedure: Mouse sarcoma cells were treated with 1 μM of compound for 48 h. RNA was isolated and qRT-PCR was performed for known NF-κB targets and proliferation-associated targets (i.e., Ki67, FOXM1). Target genes used to assess NF-κB inhibition specific to the cancer contexts are evaluated. For example, to test the efficacy of these compounds against NF-κB transcriptional activity in […] cells, expression of PHLDA1, IER2, and LITAF is determined. Compounds that alter expression of NF-κB target genes are assessed in proliferation studies using UPS, head and neck, prostate, and breast cancer cell lines previously associated with NF-κB dependence. IC50 studies and Western blot analyses are performed to evaluate total or phosphorylated p65 levels. Small molecules are then assessed to determine their mechanism of action. […] FIGS. 4-6 provide timecourse graphs showing the relative expression normalized to housekeeping genes.

With `c1ccc(CNc2ncnc3ccccc23)cc1` [BRD-K43796186, N-benzylquinazolin-4-amine] the “toxicity by trypan blue staining” value [1] was “did not exhibit overt toxicity”, the proliferation [2] was “did not affect the proliferation” and the Yap1 protein levels (Yap1) was “reduced”. For the same molecule, the Ccl2 expression (mouse sarcoma cells) was “significantly decreased”, the Foxm1 expression (mouse sarcoma cells) was “reduced” and the Yap1 gene expression (mouse sarcoma cells; listed as NB4A) was “not affected; also recorded: not effected”.
